Target: T1, RPS6KA3 (RSK2) (Homo sapiens, UniProt P51812)
T1 construct: purchased Thermo Fisher Scientific (Life Technologies) SelectScreen
Assay: SelectScreen Z'LYTE
Assay type: biochemical
Method in brief: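 SelectScreen broad panel; activity (Z'LYTE, Adapta) plus binding formats. ATP: Km app for CSF1R Z'LYTE; 10 for CAMK1 Adapta. Readout = % per kinase.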

T1 sequence (P51812 whole entry): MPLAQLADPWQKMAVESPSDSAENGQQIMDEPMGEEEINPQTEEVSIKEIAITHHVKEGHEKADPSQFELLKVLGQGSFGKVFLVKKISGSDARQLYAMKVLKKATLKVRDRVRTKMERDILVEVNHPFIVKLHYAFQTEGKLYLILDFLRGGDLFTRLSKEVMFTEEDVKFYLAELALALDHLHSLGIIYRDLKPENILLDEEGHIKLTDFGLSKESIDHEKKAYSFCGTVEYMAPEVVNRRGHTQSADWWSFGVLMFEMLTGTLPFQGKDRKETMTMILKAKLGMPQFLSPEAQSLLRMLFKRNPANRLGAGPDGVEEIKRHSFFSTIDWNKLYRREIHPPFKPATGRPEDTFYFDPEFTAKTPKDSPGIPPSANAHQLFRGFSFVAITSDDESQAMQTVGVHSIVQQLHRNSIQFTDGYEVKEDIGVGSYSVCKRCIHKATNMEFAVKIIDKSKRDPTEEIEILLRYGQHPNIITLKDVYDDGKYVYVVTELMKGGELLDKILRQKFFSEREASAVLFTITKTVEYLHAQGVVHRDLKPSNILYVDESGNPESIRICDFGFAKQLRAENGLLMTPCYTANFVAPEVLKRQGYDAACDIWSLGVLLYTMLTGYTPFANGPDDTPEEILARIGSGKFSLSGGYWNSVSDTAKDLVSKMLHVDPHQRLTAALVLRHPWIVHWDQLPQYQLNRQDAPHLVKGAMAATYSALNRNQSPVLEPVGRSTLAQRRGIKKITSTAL

**Q.** How did the inhibition at 1 µM turn out when CN(C(=O)CN1CCOCC1)c1ccc2sc3c(-c4cccc5c(=O)cc(N6CC7CCC(C6)O7)oc45)cccc3c2c1 [NU5455] was run?
**A.** 2.1%
